Columns and labels:
[1] = target: T1, human SUMO-1_18–97 (SUMO) (Homo sapiens, UniProt P63165); experiment: Fluorescence anisotropy competition assay (FAM-SIM tracer displacement from SUMO); conditions: for inhibitory potency relative to the parent SIM peptide (in words): fluorescence anisotropy competition assay, backbone N-methyl scan
Method: Fluorescence competition anisotropy data. The parent SIM peptide and its N-methylated variants were each
peptide (50 nM) in Tris-buffered saline (20 mM Tris, pH 8.0, 150 mM NaCl and 0.03% Triton-X).
Tris, 150 mM NaCl, 0.01 % Triton-X, pH 7.4 using 50 nM FAM PEG-SIM tracer and 3 μM SUMO protein.
Inhibitory potencies for N-methylated SIM peptides to SUMO. IC50 values were determined through competition
FA experiments (20 mm Tris, 150 mM NaCl, 0.03% Triton X, pH 8.0).
Competition binding assays were performed in triplicate within 384-well plates (Greiner Bio-one). Competitor
nM, 3 μM, 50 nM final concentrations of competitor, SUMO and tracer respectively). Control wells lacked
tracer. The plates were kept in the dark for at least 30 min before fluorescence polarisation was measured.
Labtech), with excitation at 482 nm (bandwidth = 16 nM) and emission at 530 nm (bandwidth = 40 nm). For
(bandwidth = 20 nM) and emission at 535 nm (bandwidth = 25 nm).
Perependicular (P) and parallel (S) intensities of the control wells were averaged and deducted from each
= Ssample – Sav. control). The total sample intensities (I) and anisotropies (r) were then calculated as follows:
Fluorescence anisotropy values were plotted against competitor peptide concentrations and fit to a logistic
function of the form Y = A2 + (A1 – A2) / (1 + (x/x0)p) for determination of half-maximal inhibitory concentrations
Note: To ensure a set of self-consistent IC50 values for comparison, experiments were performed using a single
batch of protein given subtle batch dependent variations in active concentration of protein.

[2] = target: T1, human SUMO-1_18–97 (SUMO); experiment: Relaxation-based NMR binding kinetics (15N ZZ-exchange for tighter binders, CPMG relaxation dispersion for weaker binders); conditions: for koff / kon: pH 7.4
Source text: Non-overlapping exchange cross-peaks were evident for a subset of residues when the ^15N magnetizations of the bound and unbound states were mixed following t1 (^15N) evolution (ZZ-exchange spectroscopy). Global fitting of the intensities of auto and cross peaks as a function of mixing time to McConnel equations (Fig. 3c, S8–S11; ESI ^† for methods) gave apparent first-order association k^appon and first-order dissociation koff rates for binding, which were converted to kon and dissociation equilibrium constants (KD).
All NMR spectra acquired using 15N-labelled protein samples were acquired at 5 °C, in 20 mM sodium
phosphate pH 7.4, 150 mM NaCl, 0.02% NaN3, on 750 or 600 MHz Bruker NMR spectrometers.
Protein and peptide NMR spectra were processed with NMRPipe and analysed in CcpNmr analysis.
15N ZZ-exchange spectroscopy
15N ZZ-exchange experiments were performed in an interleaved manner as described previously4 using mixing
times between 10 and 500 ms. Data were fit to a simple 2-state model:
where state A represents unbound SUMO and state B represents SUMO bound to SIM. The time-evolution of
the longitudinal magnetisations during mixing are described by the corresponding McConnel equations:4
𝑧 = 𝑘𝑎𝑝𝑝𝑀𝑏𝑎 ‒ 𝑀𝑏𝑏(𝑘 + 𝑅𝑏)
𝑧 = 𝑘 𝑀𝑏𝑏 ‒ 𝑀𝑏𝑎(𝑘𝑎𝑝𝑝 + 𝑅𝑎)
where is the𝑀𝑎𝑎𝑧 z-magnetization of unbound SUMO, is the𝑀𝑏𝑏𝑧 z-magnetization of bound SUMO, and , 𝑀𝑎𝑏𝑧
𝑧 are the z-magnetizations of the corresponding exchange cross-peaks. are11 the longitudinal relaxation
rates for states A and B, and are𝑜𝑛𝑜𝑓𝑓 the pseudo-first order association and dissociation rates,
respectively. Simple analytical solutions to the above equations are available4 and were used to fit the ZZ-
exchange data. Fitting parameters included , residue𝑜𝑛𝑜𝑓𝑓 specific rates,11 and scaling factors
𝐼𝑎𝑎, 𝐼𝑏𝑏 that incorporate any differences in the relaxation rates of the bound and unbound species. Scaling
factors for the exchange cross-peaks were 𝐼𝑎𝑏, 𝐼𝑏𝑎 not included as these were absent at the start of the mixing
period in all cases. Uncertainties in the fitted parameters were calculated using a Monte-Carlo approach based
on the noise of the experiment. Fitting was performed using in-house scripts written in Python employing the
LmFit module available at https://lmfit.github.io/lmfit-py/.

[3] = target: T1, human SUMO-1_18–97 (SUMO); experiment: Temperature dependence of NMR-derived exchange parameters (Van't Hoff and Eyring analysis); type: binding; design: human SUMO-1_18–97 (SUMO); His tag with TEV site (N, cleaved yes); made in house; conditions: 25 °C; for TΔS, Binding (KD) / ΔH, Binding (KD): Van't Hoff fit, ± SD of fitted parameter (Monte-Carlo), SD
[4] = target: T1, human SUMO-1_18–97 (SUMO); experiment: as above; type: binding; design: human SUMO-1_18–97 (SUMO); His tag with TEV site (N, cleaved yes); made in house; conditions: 25 °C; for TΔS, Association (activation, kon) / TΔS, Dissociation (activation, koff) / ΔG, Association (activation, kon) / ΔG, Dissociation (activation, koff) / ΔH, Association (activation, kon) / ΔH, Dissociation (activation, koff): Eyring fit, ± SD of fitted parameter (Monte-Carlo), SD
Source text: Eyring plots were obtained for the temperature-dependence of the kon and koff rates (Fig. 5d and e), from which the association/dissociation activation enthalpies (ΔH^‡ass/ΔH^‡diss), activation/dissociation entropies (TΔS^‡ass/TΔS^‡diss), and thus activation/dissociation free energies (ΔG^‡ass/ΔG^‡diss), could be determined.

T1 sequence (P63165 18-97): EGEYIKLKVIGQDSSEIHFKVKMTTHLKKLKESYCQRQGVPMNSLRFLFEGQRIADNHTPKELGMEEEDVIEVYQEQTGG

Row | SMILES | IC50 [1] [µM] | Kd [2] [µM] | koff [2] [s⁻¹] | kon [2] [M⁻¹ s⁻¹] | further results
1 | CC[C@H](C)[C@H](NC(=O)[C@H](CCC(=O)O)NC(=O)[C@H](CC(N)=O)N(C)C(=O)[C@H](CC(=O)O)NC(C)=O)C(=O)N[C@@H](CCC(=O)O)C(=O)N[C@H](C(=O)N[C@H](C(=O)N[C@H](C(=O)N[C@H](C(=O)N[C@@H](Cc1c[nH]c2ccccc12)C(=O)N[C@@H](CCC(=O)O)C(=O)N[C@@H](CCCCN)C(=O)N[C@@H](CCCCN)C(N)=O)C(C)C)[C@@H](C)CC)[C@@H](C)CC)C(C)C [Me-Asn2706] | 9.4 ± 0.5 | – | – | – | –
2 | CC[C@H](C)[C@H](NC(=O)[C@H](CCC(=O)O)NC(=O)[C@H](CC(N)=O)NC(=O)[C@H](CC(=O)O)N(C)C(C)=O)C(=O)N[C@@H](CCC(=O)O)C(=O)N[C@H](C(=O)N[C@H](C(=O)N[C@H](C(=O)N[C@H](C(=O)N[C@@H](Cc1c[nH]c2ccccc12)C(=O)N[C@@H](CCC(=O)O)C(=O)N[C@@H](CCCCN)C(=O)N[C@@H](CCCCN)C(N)=O)C(C)C)[C@@H](C)CC)[C@@H](C)CC)C(C)C [Me-Asp2705] | 12.6 ± 0.5 | – | – | – | –
3 | CC[C@H](C)[C@H](NC(=O)[C@@H](NC(=O)[C@H](CCC(=O)O)NC(=O)[C@@H](NC(=O)[C@H](CCC(=O)O)N(C)C(=O)[C@H](CC(N)=O)NC(=O)[C@H](CC(=O)O)NC(C)=O)[C@@H](C)CC)C(C)C)C(=O)N[C@H](C(=O)N[C@H](C(=O)N[C@@H](Cc1c[nH]c2ccccc12)C(=O)N[C@@H](CCC(=O)O)C(=O)N[C@@H](CCCCN)C(=O)N[C@@H](CCCCN)C(N)=O)C(C)C)[C@@H](C)CC [Me-Glu2707] | 12.4 ± 0.8 | – | – | – | –
4 | CC[C@H](C)[C@H](NC(=O)[C@@H](NC(=O)[C@H](CCC(=O)O)N(C)C(=O)[C@@H](NC(=O)[C@H](CCC(=O)O)NC(=O)[C@H](CC(N)=O)NC(=O)[C@H](CC(=O)O)NC(C)=O)[C@@H](C)CC)C(C)C)C(=O)N[C@H](C(=O)N[C@H](C(=O)N[C@@H](Cc1c[nH]c2ccccc12)C(=O)N[C@@H](CCC(=O)O)C(=O)N[C@@H](CCCCN)C(=O)N[C@@H](CCCCN)C(N)=O)C(C)C)[C@@H](C)CC [Me-Glu2709] | 31.4 ± 3 | – | – | – | –
5 | CC[C@H](C)[C@H](NC(=O)[C@H](CCC(=O)O)NC(=O)[C@H](CC(N)=O)NC(=O)[C@H](CC(=O)O)NC(C)=O)C(=O)N[C@@H](CCC(=O)O)C(=O)N[C@H](C(=O)N[C@H](C(=O)N[C@H](C(=O)N[C@H](C(=O)N[C@@H](Cc1c[nH]c2ccccc12)C(=O)N(C)[C@@H](CCC(=O)O)C(=O)N[C@@H](CCCCN)C(=O)N[C@@H](CCCCN)C(N)=O)C(C)C)[C@@H](C)CC)[C@@H](C)CC)C(C)C [Me-Glu2715] | 27.4 ± 1.9 | – | – | – | –
6 | CC[C@H](C)[C@H](NC(=O)[C@@H](NC(=O)[C@H](CCC(=O)O)NC(=O)[C@H]([C@@H](C)CC)N(C)C(=O)[C@H](CCC(=O)O)NC(=O)[C@H](CC(N)=O)NC(=O)[C@H](CC(=O)O)NC(C)=O)C(C)C)C(=O)N[C@H](C(=O)N[C@H](C(=O)N[C@@H](Cc1c[nH]c2ccccc12)C(=O)N[C@@H](CCC(=O)O)C(=O)N[C@@H](CCCCN)C(=O)N[C@@H](CCCCN)C(N)=O)C(C)C)[C@@H](C)CC [Me-Ile2708] | 5.4 ± 0.3 | 14 ± 0.4 | 4.58 ± 0.04 | 327000 ± 9000 | –
7 | CC[C@H](C)[C@H](NC(=O)[C@H](CCC(=O)O)NC(=O)[C@H](CC(N)=O)NC(=O)[C@H](CC(=O)O)NC(C)=O)C(=O)N[C@@H](CCC(=O)O)C(=O)N[C@H](C(=O)N(C)[C@H](C(=O)N[C@H](C(=O)N[C@H](C(=O)N[C@@H](Cc1c[nH]c2ccccc12)C(=O)N[C@@H](CCC(=O)O)C(=O)N[C@@H](CCCCN)C(=O)N[C@@H](CCCCN)C(N)=O)C(C)C)[C@@H](C)CC)[C@@H](C)CC)C(C)C [Me-Ile2711, Ac-DNEIEV(NMe)IIVWEKK-NH2] | > 300 | – | – | – | inhibitory potency relative to the parent SIM peptide (in words) [1]: significantly diminished inhibitory potency
8 | CC[C@H](C)[C@H](NC(=O)[C@H](CCC(=O)O)NC(=O)[C@H](CC(N)=O)NC(=O)[C@H](CC(=O)O)NC(C)=O)C(=O)N[C@@H](CCC(=O)O)C(=O)N[C@H](C(=O)N[C@H](C(=O)N(C)[C@H](C(=O)N[C@H](C(=O)N[C@@H](Cc1c[nH]c2ccccc12)C(=O)N[C@@H](CCC(=O)O)C(=O)N[C@@H](CCCCN)C(=O)N[C@@H](CCCCN)C(N)=O)C(C)C)[C@@H](C)CC)[C@@H](C)CC)C(C)C [Me-Ile2712, Ac-DNEIEVI(NMe)IVWEKK-NH2] | 7.9 ± 1 | 14.5 ± 0.9 | 5.9 ± 0.08 | 410000 ± 28000 | decrease in ΔGbind relative to parent [3]: 3 kJ/mol; increase in enthalpy (ΔHbind) in comparison to the parent SIM peptide [3]: ~12 kJ/mol; increase in entropy of binding (TΔSbind) in comparison to the parent SIM peptide [3]: ~15 kJ/mol; TΔS, Binding (KD) [3]: 161.8 ± 2.0 kJ/mol; ΔH, Binding (KD) [3]: 125.2 ± 0.2 kJ/mol; ΔΔG vs. parent (increase in affinity) ([2]; from KD values of 15N ZZ-exchange data at 5 °C): ~2 kJ/mol; TΔS‡ass more favourable than parent by [4]: ≈ 11 kJ mol^−1; ΔH‡ass more unfavourable than parent by [4]: ≈ 8 kJ mol^−1; TΔS, Association (activation, kon) [4]: 145.5 ± 2.1 kJ/mol; TΔS, Dissociation (activation, koff) [4]: -14.7 ± 0.2 kJ/mol; ΔG, Association (activation, kon) [4]: 27.5 ± 2.2 kJ/mol; ΔG, Dissociation (activation, koff) [4]: 64.8 ± 0.4 kJ/mol; ΔH, Association (activation, kon) [4]: 172.5 ± 2.1 kJ/mol; ΔH, Dissociation (activation, koff) [4]: 50.2 ± 0.3 kJ/mol
9 | CC[C@H](C)[C@H](NC(=O)[C@H](CCC(=O)O)NC(=O)[C@H](CC(N)=O)NC(=O)[C@H](CC(=O)O)NC(C)=O)C(=O)N[C@@H](CCC(=O)O)C(=O)N[C@H](C(=O)N[C@H](C(=O)N[C@H](C(=O)N[C@H](C(=O)N[C@@H](Cc1c[nH]c2ccccc12)C(=O)N[C@@H](CCC(=O)O)C(=O)N(C)[C@@H](CCCCN)C(=O)N[C@@H](CCCCN)C(N)=O)C(C)C)[C@@H](C)CC)[C@@H](C)CC)C(C)C [Me-Lys2716] | > 100 | 510 ± 40 | 553 ± 17 | 1.09e+06 ± 70000 | TΔS, Binding (KD) [3]: 52.5 ± 0.2 kJ/mol; ΔH, Binding (KD) [3]: 31.4 ± 0.2 kJ/mol; TΔS, Association (activation, kon) [4]: 13.0 ± 0.2 kJ/mol; TΔS, Dissociation (activation, koff) [4]: -38.5 ± 0.1 kJ/mol; ΔG, Association (activation, kon) [4]: 35.4 ± 0.3 kJ/mol; ΔG, Dissociation (activation, koff) [4]: 56.5 ± 0.1 kJ/mol; ΔH, Association (activation, kon) [4]: 48.5 ± 0.2 kJ/mol; ΔH, Dissociation (activation, koff) [4]: 17.9 ± 0.1 kJ/mol
10 | CC[C@H](C)[C@H](NC(=O)[C@H](CCC(=O)O)NC(=O)[C@H](CC(N)=O)NC(=O)[C@H](CC(=O)O)NC(C)=O)C(=O)N[C@@H](CCC(=O)O)C(=O)N[C@H](C(=O)N[C@H](C(=O)N[C@H](C(=O)N[C@H](C(=O)N[C@@H](Cc1c[nH]c2ccccc12)C(=O)N[C@@H](CCC(=O)O)C(=O)N[C@@H](CCCCN)C(=O)N(C)[C@@H](CCCCN)C(N)=O)C(C)C)[C@@H](C)CC)[C@@H](C)CC)C(C)C [Me-Lys2717] | 10 ± 0.4 | 13.6 ± 0.5 | 8.95 ± 0.12 | 657000 ± 27000 | –
11 | CC[C@H](C)[C@H](NC(=O)[C@H](CCC(=O)O)NC(=O)[C@H](CC(N)=O)NC(=O)[C@H](CC(=O)O)NC(C)=O)C(=O)N[C@@H](CCC(=O)O)C(=O)N[C@H](C(=O)N[C@H](C(=O)N[C@H](C(=O)N[C@H](C(=O)N(C)[C@@H](Cc1c[nH]c2ccccc12)C(=O)N[C@@H](CCC(=O)O)C(=O)N[C@@H](CCCCN)C(=O)N[C@@H](CCCCN)C(N)=O)C(C)C)[C@@H](C)CC)[C@@H](C)CC)C(C)C [Me-Trp2714] | > 100 | – | – | – | inhibitory potency relative to the parent SIM peptide (in words) [1]: significantly diminished inhibitory potency
12 | CC[C@H](C)[C@H](NC(=O)[C@H](CCC(=O)O)NC(=O)[C@H](CC(N)=O)NC(=O)[C@H](CC(=O)O)NC(C)=O)C(=O)N[C@@H](CCC(=O)O)C(=O)N(C)[C@H](C(=O)N[C@H](C(=O)N[C@H](C(=O)N[C@H](C(=O)N[C@@H](Cc1c[nH]c2ccccc12)C(=O)N[C@@H](CCC(=O)O)C(=O)N[C@@H](CCCCN)C(=O)N[C@@H](CCCCN)C(N)=O)C(C)C)[C@@H](C)CC)[C@@H](C)CC)C(C)C [Me-Val2710] | > 100 | 388 ± 7 | 208 ± 1 | 536000 ± 10000 | –
13 | CC[C@H](C)[C@H](NC(=O)[C@H](CCC(=O)O)NC(=O)[C@H](CC(N)=O)NC(=O)[C@H](CC(=O)O)NC(C)=O)C(=O)N[C@@H](CCC(=O)O)C(=O)N[C@H](C(=O)N[C@H](C(=O)N[C@H](C(=O)N(C)[C@H](C(=O)N[C@@H](Cc1c[nH]c2ccccc12)C(=O)N[C@@H](CCC(=O)O)C(=O)N[C@@H](CCCCN)C(=O)N[C@@H](CCCCN)C(N)=O)C(C)C)[C@@H](C)CC)[C@@H](C)CC)C(C)C [Me-Val2713] | > 100 | – | – | – | inhibitory potency relative to the parent SIM peptide (in words) [1]: significantly diminished inhibitory potency

From article PMC11220606, “Understanding β-strand mediated protein–protein interactions: tuning binding behaviour of intrinsically disordered sequences by backbone modification” (Chemical Science, 2024)
